Results: US11337424B2, “Fungicidal compounds and mixtures for fungal control in cereals” (Corteva Agriscience LLC, priority 2016, dated 2022)

How the values were obtained:
Assay type in all cases: in vivo
[1] = test system: Zymoseptoria tritici (SEPTTR); experiment: Field assessment of leaf blotch of wheat (SEPTTR), 3 field trials, relative AUDPC; conditions: % control based on AUDPC, average of 3 trials
Description: (§1) Treatments consisted of the compound of Formula I and fenpicoxamid either using individually or as a two-way mixture with the compound of Formula I. The compound of Formula I was applied with Agnique BP-420 (50% w/w at 0.3% v/v) at 75 and 150 g ai/ha and fenpicoxamid was applied with Agnique BP-420 (50% w/w at 0.3% v/v) at 75 and 100 g ai/ha. Commercial standards used in the studies were Fluxapyroxad (Imtrex), applied at 100 g ai/ha, and Metconazole+Fluxapyroxad (Librax), applied at 161 g ai/ha.
Field Assessment of Zymoseptoria Tritici (SEPTTR) in Wheat:
Fungicidal treatments containing the compound of Formula I and fenpicoxamid, either individually or as a two way mixture, were assessed against leaf spot of wheat (SEPTTR) in three separate field trials. In the first trial, fungicidal treatments were applied at B37 (curative, 1.8% infection at application on L4) growth stage of winter wheat (TRZAW, Sy moisson variety) under naturally occurring infection with SEPTTR. The treatments were part of an experimental trial designed as a randomized complete block with four replications and a plot of approximately 2×4 m. Treatments were applied at water volume of 200 L/ha, using a backpack plot sprayer (BKPCKAIR, FLAT FAN nozzle) and pressurized at 250 kPa.
In the second trial, fungicidal treatments were applied twice at B32 (curative, 15% infection at application on L5) and B39 (16% infection at application on L4) growth stages of winter wheat (TRZAW, Riband variety) under naturally occurring infection with SEPTTR. The treatments were part of an experimental trial designed as a randomized complete block with four replications and a plot of approximately 1.5×2 m. Treatments were applied at water volume of 200 L/ha, using a backpack plot sprayer (BKPCKAIR, Flat fan nozzle) and pressurized at 180 kPa.
In the final trial, fungicidal treatments were applied twice at B32 (protective, 15% infection at application on L6) and B37 (12% infection at application on L5) growth stages of winter wheat (TRZAW, Smaragd variety) under naturally occurring infection with SEPTTR. […]
Disease severity (percentage of visual diseased foliage on whole plot or leaves) in both field trials was assessed at 7-9 weeks after application and was recorded following EPPO PP1/26 guideline prescriptions. Area under the disease progress curve (AUDPC) was calculated for each plot in both trials using the sets of recorded severity data. Relative AUDPC (% control based on AUDPC) was calculated as percent of the nontreated control. Final results for the control of leaf spot of wheat by the compound of Formula I, fenpicoxamid, and mixtures are reported as an average of the relative AUDPC calculated over all three field trials. […]

[2] = test system: Puccinia recondita (PUCCRT); experiment: Field assessment of brown rust of wheat (PUCCRT), 2 field trials, relative AUDPC; conditions: % control based on AUDPC, average of 2 trials
Description: as §1
Field Assessment of Puccinia recondita (PUCCRT) in Wheat:
Fungicidal treatment containing the compound of Formula I and fenpicoxamid, either individually or as a two mixture, were assessed against brown rust of wheat (PUCCRT) in two separate field trials. In the first trial, fungicidal treatments were applied at B37-39 (protectant, approximately 0% infection at application) growth stage of wheat (TRZAW, MV Vanek variety) under natural infection of brown rust. The treatment was part of an experimental trial designed as a randomized complete block with four replications and a plot of approximately 2×3 m. Fungicidal treatments were applied at a water volume of 200 L/ha, using a backpack plot sprayer with a TEEJET QJ90-2XTT110 015 Nozzle.
In the second trial, fungicidal treatments containing the compound of Formula I and fenpicoxamid, either individually or as a two way mixture, were applied at B33 (curative, approximately 6.6% infection at application) growth stage of wheat (TRZAW, Miradoux variety) under natural infection of brown rust. The treatments were part of an experimental trial designed as a randomized complete block with four replications and a plot of approximately 2×3 m. Fungicidal treatments were applied at a water volume of 200 L/ha, using a backpack plot sprayer with a HARDI MD110-02 Nozzle.
(§2) Disease severity (percentage of visual diseased foliage on whole plot or leaves) in both field trials was assessed at 5 weeks after application and was recorded following EPPO PP1/26 guideline prescriptions. Area under the disease progress curve (AUDPC) was calculated for each plot in both trials using the sets of recorded severity data. Relative AUDPC (% control based on AUDPC) was calculated as percent of the nontreated control. Final results for the control of brown rust of wheat by the compound of Formula I, fenpicoxamid, and mixtures are reported as an average of the relative AUDPC calculated over both field trials. Statistical analysis was done according to ANOVA and Tukey's test (p=0.10).

[3] = test system: Puccinia striiformis (PUCCST); experiment: Field assessment of yellow rust of wheat (PUCCST), 2 field trials, relative AUDPC; conditions: % control based on AUDPC, average of 2 trials
Description: as §1
Field Assessment of Puccinia striiformis (PUCCST) in Wheat:
Fungicidal treatments containing the compound of Formula I and fenpicoxamid, either individually or as a two way mixture, were assessed against yellow rust of wheat (PUCCST) in two separate field trials. In the first trial, fungicidal treatments were applied twice at B31-32 (early curative, 4% infection at application on L3) and B39 (16.3% infection at application on L3) growth stages of winter wheat (TRZAW, Fairplay variety) under naturally occurring infection with PUCCST. The treatments were part of an experimental trial designed as a randomized complete block with four replications and a plot of approximately 1×6 m. Treatments were applied at water volume of 200 L/ha, using a backpack plot sprayer (BKPCKENG, F110-015 Hardi (3) Flat fan nozzle) and pressurized at 200 kPa.
In the second trial, fungicidal treatments containing the compound of Formula I and fenpicoxamid, either individually or as a two way mixture, were applied twice at B32 (protectant, 0% infection on L3 at application) and B37 (early curative, 20% infection on L3 at application) growth stages of wheat (TRZAW, Torch variety) under naturally occurring infection with PUCCST. The treatment was part of an experimental trial designed as a randomized complete block with four replications and a plot of approximately 2×4 m. Treatments were applied at water volume of 200 L/ha, using a backpack precision plot sprayer (BKCKAIR, F110-03 Hypro (4) Flat fan nozzle) and pressurized at 210 kPa.
as §2, with “4-7” for “5”, “yellow” for “brown”

| SMILES | SEPTTR % Control ([1]; 50 g ai/ha) | SEPTTR % Control ([1]; 75 g ai/ha) | PUCCRT % Control ([2]; 75 g ai/ha) | PUCCRT % Control ([2]; 100 g ai/ha) | PUCCST % Control ([3]; 75 g ai/ha) | PUCCST % Control ([3]; 100 g ai/ha) | SEPTTR % Control ([1]; 150 g ai/ha) | PUCCRT % Control ([2]; 150 g ai/ha) | PUCCST % Control ([3]; 150 g ai/ha) |
| --- | --- | --- | --- | --- | --- | --- | --- | --- | --- |
| COc1ccnc(C(=O)N[C@H]2COC(=O)[C@H](Cc3ccccc3)[C@@H](OC(=O)C(C)C)[C@H](C)OC2=O)c1OCOC(=O)C(C)C [Fenpicoxamid, (3S,6S,7R,8R)-8-benzyl-3-(3-((isobutyryloxy)methoxy)-4-methoxypicolinamido)-6-methyl-4,9-dioxo-1,5-dioxonan-7-yl isobutyrate] | 48.7% | 57.7% | 63.5% | 74.5% | 56.5% | 60.5% | – | – | – |
| N#Cc1ccc(Oc2ccc(C(F)(F)C(O)(Cn3nc[nH]c3=S)c3ccc(F)cc3F)nc2)cc1 (stereo not drawn) [Compound I, 4-((6-(2-(2,4-difluorophenyl)-1,1-difluoro-2-hydroxy-3-(5-thioxo-4,5-dihydro-1H-1,2,4-triazol-1-yl)propyl)pyridin-3-yl)oxy)benzonitrile] | – | 48.2% | 79.7% | – | 82.7% | – | 65.8% | 89.0% | 85.5% |
